Consider 20 compounds from patent publication US20240262842A1, “SMALL MOLECULE INHIBITORS OF KRAS G12C MUTANT” (Merck Sharp & Dohme LLC, priority 2021, published 2024).

Assay [1] relates to MIA PaCa-2 cells. Put plainly: Growth inhibition activity on KRAS-G12C mutant cell line (CellTiter-Glo 3D). The format is cell-based, human. As to conditions: MIA PaCa-2, 3-day culture with compound. In short, it runs like this: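 MIA PaCa-2 cells in RPMI1640 with 10% FBS, U-bottom wells, cultured 1 day before compound (0.2% DMSO final), then 3 days at 37 °C, 5% CO2. Viability by CellTiter-Glo 3D luminescence; growth inhibition versus untreated wells gives IC50 (nM).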
On the technique in general: In ATP-based viability assays light output follows the ATP content of the culture.

The target of assay [2] is T1, interaction between GMPPNP-bound recombinant K-Ras4B G12C mutant protein and cRAF RAS-binding domain (cRAF-RBD) (Homo sapiens, UniProt P01116, G12C).
T1 construct: His-tag (N)
The assay can be described thus: Inhibitory activity on interaction between KRAS G12C and cRAF (Alpha technology). The essentials:
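His-tagged K-Ras4B G12C (aa 1-169), GMPPNP-loaded, preincubated with compound 1 h at 25° C in pH 7.5 Tris buffer with MgCl2, TCEP, Tween 20. cRAF-RBD (aa 50-132) and Alpha reagents then added for 1.5 h; Alpha signal normalised to DMSO (0%) and GDP-bound KRAS (100%); IC50 from dose titration.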

[3] abbreviates: Homo sapiens, MIA PaCa-2, 72 h, Table 3-1.
Setting [4] is: GMPPNP-bound KRAS G12C incubated with compound 25° C. 1 hour, Table 2-1, read-out: IC50.
Setting [5] is: IC50, GMPPNP-bound KRAS G12C incubated with compound 25° C. 1 hour, Table 2.
Setting [6] is: Homo sapiens, MIA PaCa-2, 72 h, Table 3.

Like-named read-outs stand apart in the source and are kept apart here. A value given as a limit tells only on which side of the number the result lay.

T1 sequence (P01116 with tags, fused parts or gaps isoform P01116-2 G12C): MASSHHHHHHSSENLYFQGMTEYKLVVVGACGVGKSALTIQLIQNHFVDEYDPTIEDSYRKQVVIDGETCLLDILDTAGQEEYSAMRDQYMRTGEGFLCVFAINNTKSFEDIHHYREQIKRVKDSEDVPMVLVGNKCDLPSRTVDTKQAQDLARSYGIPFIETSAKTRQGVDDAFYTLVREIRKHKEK

Regarding `Cc1nnc2c3c(c(C(F)(F)F)cn12)-c1cccn2c(C(=O)c4cc(F)c(NC(=O)/C=C/CN[C@H]5CCOC5)c(F)c4)cc(c12)CCN3C` [Example 217, (S,E)-N-(4-(10,13-dimethyl-7-(trifluoromethyl)-14,15-dihydro-13H-[1,2,4]triazolo[4″,3″:1′,2′]pyrido[3′,4′:2,3]azocino[4,5,6-hi]indolizine-2-carbonyl)-2,6-difluorophenyl)-4-((tetrahydrofuran-3-yl)amino)but-2-enamide], the figures for the IC50 in assay [1] (setting [3]) and in assay [2] (setting [4]) were 6.22 nM and 19.7 nM, respectively.
Take `CN1CCc2cc(C(=O)c3cc(F)c(NC(=O)/C=C/CNC4(C)CSC4)c(F)c3)n3cccc(c23)-c2c(C(F)(F)F)cc3c(ncn3C)c21` [Example 249]: the IC50 in assay [1] (setting [3]) came out at 28.6 nM; in assay [2] (setting [4]), 27.5 nM.
In the case of `COCCn1cnc2c3c(c(OC)cc21)-c1cccn2c(C(=O)c4cc(F)c(NC(=O)/C=C/CN[C@H]5CCOC5)c(F)c4)cc(c12)CCN3C` (single isomer, unassigned) [Example 203], the IC50 in assay [1] (setting [3]) worked out at 11 nM; in assay [2] (setting [4]) it was 20.4 nM.
For `COCCn1c(C)nc2c3c(c(OC)cc21)-c1cccn2c(C(=O)c4cc(F)c(NC(=O)/C=C/CN[C@H]5CCOC5)c(F)c4)cc(c12)CCN3C` (single isomer, unassigned) [Example 201] the same measures were 5.83 nM and 17.6 nM.
The matching figures for `CN1CCc2cc(C(=O)c3cc(F)c(NC(=O)/C=C/CN[C@@H]4CCCC[C@H]4O)c(F)c3)n3cccc(c23)-c2c(C(F)(F)F)cc3c(ncn3C)c21` [Example 100, (E)-N-(4-(9,12-dimethyl-7-(trifluoromethyl)-9,12,13,14-tetrahydro-imidazo[4″,5″:5′,6′]benzo-[1′,2′:2,3]azocino[4,5,6-hi]indolizine-2-carbonyl)-2,6-difluorophenyl)-4-(((1R,2R)-2-hydroxy-cyclohexyl)amino)but-2-enamide]: 23.4 nM and 34.5 nM.
Consider `CC(O)[C@]1(C)CCCN1C/C=C/C(=O)Nc1c(F)cc(C(=O)c2cc3c4c(cccn24)-c2c(C(F)(F)F)cc4c(ncn4C)c2N(C)CC3)cc1F` (single isomer, unassigned) [Example 204], for which the figures for the concentration for half-maximal inhibition (IC50) in assay [1] (Table 3-1) and in assay [2] (setting [4]) were 118 nM and 36.4 nM, respectively.
For the compound `Cn1cnc2c3c(c(C(F)(F)F)cc21)-c1cccn2c(C(=O)c4cc(F)c(NC(=O)/C=C/CN5CCCC5)c(F)c4)cc(c12)CCO3` [Example 149, (E)-N-(2,6-difluoro-4-(9-methyl-7-(trifluorometh-yl)-13,14-dihydro-9H-imidazo[4″,5″:5′,6′]benzo-[1′,2′:2,3]oxocino[4,5,6-hi]indolizine-2-carbonyl)-phenyl)-4-(pyrrolidin-1-yl)but-2-enamide], the IC50 was determined as 23.4 nM in assay [1] (setting [3]) and 23.7 nM in assay [2] (setting [4]).
As to `Cn1cnc2c3c(c(C(F)(F)F)cc21)-c1cccn2c(C(=O)c4cc(F)c(NC(=O)/C=C/CN5C6CCC5COC6)c(F)c4)cc(c12)CCO3` [Example 197], the IC50 in assay [1] (setting [3]) was 10.9 nM; in assay [2] (setting [4]), 11.7 nM.
As to `CO[C@H]1CC[C@H](NC/C=C/C(=O)Nc2c(F)cc(C(=O)c3cn4c5c(cccc35)-c3c(Cl)cccc3OCCC4)cc2F)CC1` (single isomer, unassigned) [Example 4-1, (E)-N-(4-(11-chloro-5,6-dihydro-4H-benzo[8,9][1,5]oxazonino[7,6,5-hi]indole-1-carbonyl)-2,6-difluorophenyl)-4-(((1,4r)-4-methoxycyclohexyl)amino)but-2-enamide], the values for the IC50 in assay [1] (Table 3) and in assay [2] (setting [5]) were 3600 nM and > 6700 nM, respectively.
On to `Cc1nc2c3c(c(C(F)(F)F)cc2n1C)-c1cccn2c(C(=O)c4cc(F)c(NC(=O)/C=C/CNC5(C)CCOCC5)c(F)c4)cc(c12)CCN3C` (single isomer, unassigned) [Example 70, (E)-N-(2,6-difluoro-4-(9,10,12-trimethyl-7-(tri-fluoromethyl)-9,12,13,14-tetrahydroimidazo[4″,5″: 5′,6′]benzo[1′,2′:2,3]-azocino[4,5,6-hi]indol-izine-2-carbonyl)phenyl)-4-((4-methyltetrahydro-2H-pyran-4-yl)amino)but-2-enamide], for which the IC50 in assay [1] (setting [3]) came to 2.49 nM; in assay [2] (setting [4]), 9.85 nM.
Consider `CO[C@H]1CC[C@H](NC/C=C/C(=O)Nc2c(F)cc(C(=O)c3c(C)n4c5c(cccc35)-c3c(C(F)(F)F)cc5c(nc(C)n5C)c3OCC4)cc2F)CC1` [Example 25, (E)-N-(2,6-difluoro-4-(1,8,9-trimethyl-6-(trifluoromethyl)-12, 13-dihydro-8H-imidazo[4″,5″:3′,4′]benzo[1′,2′:7,8][1,4]oxazocino[6,5,4-hi]indole-2-carbonyl)phenyl)-4-(((1,4r)-4-methoxycyclohexyl)amino)but-2-enamide], for which the concentration for half-maximal inhibition (IC50) in assay [1] (setting [6]) amounted to 24 nM; in assay [2] (setting [5]), 39 nM.
In the case of `CN1CCc2cc(C(=O)c3cc(F)c(NC(=O)/C=C/CNC4(C)COC4)c(F)c3)n3cccc(c23)-c2c(C(F)(F)F)cc3[nH]cnc3c21` (single isomer, unassigned) [Example 179, (E)-N-(2,6-difluoro-4-(12-methyl-7-(trifluorometh-yl)-9,12,13,14-tetrahydro-imidazo[4″,5″:5′,6′]benzo-[1′,2′:2,3]azocino[4,5,6-hi]indolizine-2-carbonyl)-phenyl)-4-((3-methyloxe-tan-3-yl)amino)but-2-enamide], the figures for the IC50 in assay [1] (setting [3]) and in assay [2] (setting [4]) were 139 nM and 41.6 nM, respectively.
As to `CN1CCc2cc(C(=O)c3cc(F)c(NC(=O)/C=C/CN[C@H]4CCOC4)c(F)c3)n3cccc(c23)-c2c(C(F)(F)F)cc3c(ncn3C3CC3)c21` [Example 166, (S,E)-N-(4-(9-cycloprop-yl-12-methyl-7-(trifluoro-methyl)-9,12,13,14-tetra-hydroimidazo[4″,5″:5′,6′]-benzo[1′,2′:2,3]azocino-[4,5,6-hi]indolizine-2-carbonyl)-2,6-difluoro-phenyl)-4-((tetrahydro-furan-3-yl)amino)but-2-enamide], the IC50 in assay [1] (setting [3]) turned out to be 51.2 nM; in assay [2] (setting [4]), 33.7 nM.
On to `Cc1cc2c(nc(C)n2C)c2c1-c1cccc3c(C(=O)c4cc(F)c(NC(=O)/C=C/CN[C@H]5CCOC5)c(F)c4)cn(c13)CCN2C` (single isomer, unassigned) [Example 90], for which the IC50 in assay [1] (setting [3]) was found to be 21.6 nM; in assay [2] (IC50, GMPPNP-bound KRAS G12C incubated with compound 25° C. 1 hour, Table 2-1), 17.2 nM.
Turning to `CO[C@H]1CC[C@H](NC/C=C/C(=O)Nc2c(F)cc(C(=O)c3cc4c5c(cccn35)-c3c(C)cc5c(nc(C)n5C)c3OCC4)cc2F)CC1` [Example 32, (E)-N-(2,6-difluoro-4-(7,9,10-trimethyl-13,14-dihydro-9H-imidazo[4″,5″:5′,6]benzo[1′,2′:2,3]oxocino[4,5,6-hi]indolizine-2-carbonyl)phenyl)-4-(((1,4r)-4-methoxycyclohexyl)amino)but-2-enamide], the IC50 in assay [1] (setting [6]) came out at 86 nM; in assay [2] (GMPPNP-bound KRAS G12C incubated with compound 25° C. 1 hour, Table 2, read-out: IC50) it was 27 nM.
Take `CO[C@H]1CC[C@H](NC/C=C/C(=O)Nc2c(F)cc(C(=O)c3cn4c5c(cccc35)-c3c(cccc3C(F)(F)F)OCC4)cc2F)CC1` (single isomer, unassigned) [Example 11-2]: the half-maximal inhibitory concentration (IC50) in assay [1] (Table 3) was determined as 91 nM; in assay [2] (setting [5]), 77 nM.
For `CC(C)(C)NC/C=C/C(=O)Nc1c(F)cc(C(=O)c2cn3c4c(cccc24)-c2c(Cl)cccc2OCCC3)cc1F` (single isomer, unassigned) [Example 2-1, (E)-4-(tert-butylamino)-N-(4-(11-chloro-5,6-dihydro-4H-benzo[8,9][1,5]oxazonino[7,6,5-hi]indole-1-carbonyl)-2,6-difluorophenyl)but-2-enamide] the same measures were 3100 nM and > 6700 nM.
Regarding `CO[C@H]1CC[C@H](NC/C=C/C(=O)Nc2c(F)cc(C(=O)c3cn4c5c(cccc35)-c3c(C)cc5c(nc(C)n5C)c3N(C)C(=O)C4)cc2F)CC1` [Example 47, (E)-N-(2,6-difluoro-4-(6,8,9,11-tetramethyl-12-oxo-8,11,12,13-tetrahydroimidazo[4″,5″:5′,6′]benzo[1′,2′:5,6][1,4]diazocino[7,8,1-hi]indole-2-carbonyl)phenyl)-4-(((1r,4r)-4-methoxycyclohexyl)amino)but-2-enamide], the IC50 in assay [1] (setting [6]) was 59 nM; in assay [2] (setting [5]), 23 nM.
As to `Cn1cnc2c3c(c(C(F)(F)F)cc21)-c1cccn2c(C(=O)c4cc(F)c(NC(=O)/C=C/CN5CCC[C@](C)(O)C5)c(F)c4)cc(c12)CCO3` [Example 196, (S,E)-N-(2,6-difluoro-4-(9-methyl-7-(trifluoro-methyl)-13,14-dihydro-9H-imidazo[4″,5″:5′,6′]-benzo[1′,2′:2,3]oxocino-[4,5,6-hi]indolizine-2-carbonyl)phenyl)-4-(3-hydroxy-3-methylpiper-idin-1-yl)but-2-enamide], the 50% inhibitory concentration (IC50) in assay [1] (setting [3]) turned out to be 31.5 nM; in assay [2] (setting [4]), 35.1 nM.
On to `Cc1cc2c(ncn2C)c2c1-c1cccn3c(C(=O)c4cc(F)c(NC(=O)/C=C/CNC5(C)CC5)c(F)c4)cc(c13)CCN2C` [Example 115, (E)-N-(2,6-difluoro-4-(7,9,12-trimethyl-9,12,13,14-tetrahydro-imidazo[4″,5″:5′,6′]benzo-[1′,2′:2,3]azocino[4,5,6-hi]indolizine-2-carbon-yl)phenyl)-4-((1-methyl-cyclopropyl)amino)but-2-enamide], for which the IC50 in assay [1] (setting [3]) came to 61.3 nM; in assay [2] (setting [4]), 38.9 nM.

A word on the IC50: it is the midpoint of a concentration-inhibition curve.
